Biological target: Proto-oncogene tyrosine-protein kinase Src (Homo sapiens, UniProt P12931)
Test: Inhibitory activity against SH2 domain of human p60 c-Src tyrosine kinase using surface plasmon resonance (SPR) assay.

Proto-oncogene tyrosine-protein kinase Src, sequence (P12931 2-536 limits assumed): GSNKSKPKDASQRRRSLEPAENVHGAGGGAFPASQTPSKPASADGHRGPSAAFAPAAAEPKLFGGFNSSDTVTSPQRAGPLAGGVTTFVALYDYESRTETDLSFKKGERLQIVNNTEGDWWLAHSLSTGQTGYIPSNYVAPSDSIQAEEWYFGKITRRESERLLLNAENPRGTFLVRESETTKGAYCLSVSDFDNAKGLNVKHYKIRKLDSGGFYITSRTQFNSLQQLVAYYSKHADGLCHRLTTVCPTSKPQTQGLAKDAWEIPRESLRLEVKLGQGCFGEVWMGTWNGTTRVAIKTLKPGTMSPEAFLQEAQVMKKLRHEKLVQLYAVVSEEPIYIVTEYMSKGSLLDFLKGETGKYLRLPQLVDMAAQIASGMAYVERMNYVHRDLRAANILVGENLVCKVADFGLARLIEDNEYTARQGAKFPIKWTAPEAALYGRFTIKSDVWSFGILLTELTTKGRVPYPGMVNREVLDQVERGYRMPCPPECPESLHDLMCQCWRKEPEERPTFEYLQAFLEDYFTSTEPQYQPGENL

SMILES	IC50 [mM]
O=[N+]([O-])c1cc2c(cc1C(O)P(=O)(O)O)OCO2 (stereo not drawn)	0.3
O=C(O)CC(O)(CC(=O)O)C(=O)O [CITRIC ACID]	> 40
O=P(O)(O)O [PHOSPHORIC ACID]	> 40

Source: ChEMBL document CHEMBL1145907, “Requirements for specific binding of low affinity inhibitor fragments to the SH2 domain of (pp60)Src are identical to those for high affinity binding of full length inhibitors” (J Med Chem, 2003)
